Data set [1] has as its system NCI (NCI-H661): human lung large cell carcinoma. Kind of data set: In vitro anticancer assay (cytotoxicity), solid tumor cells.
Data set [2] concerns DLD (DLD-1): human colon adenocarcinoma. Described as above.
In a further data set the test system is Hep2,2,15. Particulars: Hep2,2,15, Table 1; cited from earlier work.
The test system of the next data set is KB cell. Particulars: Table 1; cited from earlier work.
Data set [3] relates to KB: human oral epidermoid carcinoma.
A further data set has as its system Melanoma cell lines. The data set can be described thus: NCI panel, average of cell lines. The conditions noted are these: Homo sapiens, read-out: cytotoxicity GI50, average value of all the cancer cell lines.
The test system of the next data set is CNS Cancer cell lines. The data set can be described thus: NCI panel, average of cell lines. The conditions noted are these: Homo sapiens, read-out: cytotoxicity GI50, average value of all the cancer cell lines.
The subject of another data set is Colon Cancer cell lines. Kind of data set: NCI panel, average of cell lines. The conditions noted are these: Homo sapiens, read-out: cytotoxicity GI50, average value of all the cancer cell lines.
Data set [4] deals with Non-small cell Lung cancer cell NCI-H460. The data set can be described thus: Preliminary cytotoxicity test. The class given is cell-based, human.
In data set [5] the test system is Non-Small Cell Lung Cancer cell lines. The data set can be described thus: NCI panel, average of cell lines. The conditions noted are these: Homo sapiens, read-out: cytotoxicity GI50, average value of all the cancer cell lines.
The subject of another data set is Breast cancer cell MCF-7. The data set can be described thus: Preliminary cytotoxicity test. The class given is cell-based, human.
The subject of another data set is Leukemia cell lines. Kind of data set: NCI panel, average of cell lines. Particulars: Homo sapiens, read-out: cytotoxicity GI50, average value of all the cancer cell lines.
The test system of another data set is K-562 cells. The data set can be described thus: Cell cycle distribution by flow cytometry. The class given is cell-based, human. Particulars: K-562, 72 hrs.
Another data set has as its system Renal Cancer cell lines. The data set can be described thus: NCI panel, average of cell lines. Particulars: Homo sapiens, read-out: cytotoxicity GI50, average value of all the cancer cell lines.
The next data set deals with CNS cancer cell SF-268. Kind of data set: Preliminary cytotoxicity test. The class given is cell-based, human.
Data set [6] relates to Ovarian Cancer cell lines. The data set can be described thus: NCI panel, average of cell lines. The conditions noted are these: Homo sapiens, read-out: cytotoxicity GI50, average value of all the cancer cell lines.
The next data set relates to Breast Cancer cell lines. Kind of data set: NCI panel, average of cell lines. The conditions noted are these: Homo sapiens, read-out: cytotoxicity GI50, average value of all the cancer cell lines.
Data set [7] concerns Prostate Cancer cell lines. The data set can be described thus: NCI panel, average of cell lines. The conditions noted are these: Homo sapiens, read-out: cytotoxicity GI50, average value of all the cancer cell lines.
Data set [8] has as its system DLD (DLD-1): human colon adenocarcinoma.
For the next data set, the target named is T1, topoisomerase I (Homo sapiens, UniProt P11387).
T1 sequence (P11387 1-765): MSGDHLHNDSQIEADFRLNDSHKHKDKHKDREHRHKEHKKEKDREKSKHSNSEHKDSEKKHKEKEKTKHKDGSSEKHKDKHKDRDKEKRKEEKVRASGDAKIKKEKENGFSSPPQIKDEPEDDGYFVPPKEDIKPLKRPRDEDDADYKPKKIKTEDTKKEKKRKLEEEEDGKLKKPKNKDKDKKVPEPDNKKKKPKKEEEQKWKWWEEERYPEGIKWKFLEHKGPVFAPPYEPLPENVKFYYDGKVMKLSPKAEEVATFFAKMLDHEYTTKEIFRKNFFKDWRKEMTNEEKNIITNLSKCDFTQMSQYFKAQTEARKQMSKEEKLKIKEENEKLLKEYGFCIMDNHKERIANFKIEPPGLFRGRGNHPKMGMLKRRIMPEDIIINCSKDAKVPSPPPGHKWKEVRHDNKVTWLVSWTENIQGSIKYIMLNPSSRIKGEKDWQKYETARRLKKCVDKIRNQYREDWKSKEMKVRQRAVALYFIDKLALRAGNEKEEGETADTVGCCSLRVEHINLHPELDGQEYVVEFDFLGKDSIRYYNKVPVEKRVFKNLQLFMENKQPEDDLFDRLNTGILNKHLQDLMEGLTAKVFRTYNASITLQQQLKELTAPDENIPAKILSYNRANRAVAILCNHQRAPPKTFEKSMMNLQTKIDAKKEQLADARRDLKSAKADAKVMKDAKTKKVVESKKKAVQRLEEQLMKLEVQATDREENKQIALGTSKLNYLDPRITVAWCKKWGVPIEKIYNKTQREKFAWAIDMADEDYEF
The data set can be described thus: Topoisomerase I assay, cleavage of supercoiled pGEM9zf(−) DNA, gel electrophoresis. Particulars: from FIGS. 1 and 2. The format is biochemical.

For data set [9], the system named is Hela: human cervix epitheloid carcinoma.

Like-named read-outs stand apart in the source and are kept apart here. Marks after values point to notes of the source that are not given here.

Procedure for K-562 cells: Samples of 1×10^6 Hep G2 cells were plated on a 6 cm tissue culture dish, and the cells were allowed to recover 24 hrs before any treatment. Thereafter, DMSO or a test compound (1 μM, 10 μM or 50 μM) was added to the cells for 1 hr in complete medium at 37° C., washed twice with PBS, and incubated in fresh media for the incubation time. Cell were harvested with trypsin and washed twice with PBS. Samples were fixed in 70% ethanol and stored at 4° C. for at least 24 hrs and then washed once with McIlvaine's buffer (0.2M Na2HPO4, 0.1M citric acid, pH=7.5) and once again with PBS. Samples were stained with PI (propidium iodide) staining solution (PBS containing 100 μg/ml, RNase A and 10 μg/ml PI [Sigma]), processed on a Coulter Elite flow cytometry, and the data analyzed with the Mutiplus AV program.

As to `N#Cc1ccccc1C#C/C=C\C#CCCCOC1CCCCO1` (centres unmarked) [Compound 2, 2-(9-(Tetrahydropyranyloxy)-3(Z)-nonen-1,5-diynyl)-benzonitrile], the “IC50 Values of Cytotoxicities” value in data set [1] and in data set [2] was “— (“—” means IC50 > 20 μg/ml)” each time. For the same molecule, the IC50 (usually the concentration needed to halve the response being measured) was more than 10000 nM in the data set on Hep2,2,15 and less than 10 nM in the data set with KB cell.
With `CCCCC#C/C=C\C#Cc1ccc(Cl)cc1` [Compound 13], the “IC50 Values of Cytotoxicities” value (in [3]; in the data set with Hepa: human hepatoma) was “— (key: “—” means IC50 > 20 μg/ml)” throughout.
In the case of `N#Cc1ccccc1C#CC=CC#Cc1ccccc1N` [Compound 32, 2-[6-(o-anilinyl)-3-hexen-1,5-diynyl]benzonitrile], the GI50 worked out at 770 nM in the data set with Melanoma cell lines; 9440 nM with CNS Cancer cell lines; 470 nM in the data set with Colon Cancer cell lines; 1700 nM in data set [5]; 430 nM with Leukemia cell lines; 660 nM in the data set with Renal Cancer cell lines. Also, the results for the GI50 (in [6]; in the data set with Breast Cancer cell lines; in [7]) were 1550 nM, 2000 nM and 3130 nM, respectively. Further, the Growth percentage in [4] is reported as 8* %; with Breast cancer cell MCF-7, 36%; in the data set with CNS cancer cell SF-268, 27* %. Further, in the data set on K-562 cells, the “accumulation of G2/M stage cells” value is listed as “an accumulation of G2/M stage cells”.
Turning to `CCCCCCC#C/C=C\C#Cc1ccc(C(C)=O)cc1` [Compound 23, 4-(3-(Z)-Dodecen-1,5-diynyl)acetophenone], the “IC50 Values of Cytotoxicities” value (in the data set on Hepa: human hepatoma; in [8]; in [9]) was “— (key: “—” means IC50 > 20 μg/ml)” each time. In addition, the “topo I inhibitor, overall conclusion” value at topoisomerase I is “displayed topo I inhibitory activities”.

The values above are taken from patent US7332623B2 (Kaohsiung Medical University, priority 2003, dated 2008).
